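These data come from cells grown in 96-well plates and exposed to compound for 48 hours at five concentrations. GI50 = concentration required for 50% inhibition of growth.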 Activity calls are given as the source filed them. Cut-off read from the data, not from the text of the source: active = GI50 up to about 1.1 µM and inactive = higher.
How the values were obtained:
Assay in all cases: NCI anticancer screen, dose series, 48 h
[1] = tested on: EKVX
[2] = tested on: A498
[3] = tested on: KM12
[4] = tested on: SF-539
[5] = tested on: SF-268
[6] = tested on: LOX IMVI
[7] = tested on: MCF7
[8] = tested on: SK-MEL-5
[9] = tested on: PC-3
[10] = tested on: U-251
[11] = tested on: M14
[12] = tested on: Malme-3M
[13] = tested on: SW-620
[14] = tested on: IGROV-1
[15] = tested on: MDA-N
[16] = tested on: OVCAR-3
[17] = tested on: RXF 393
[18] = tested on: SR
[19] = tested on: NCI-H23
[20] = tested on: UO-31
[21] = tested on: BT-549
[22] = tested on: SNB-19
[23] = tested on: SN12C
[24] = tested on: OVCAR-5
[25] = tested on: T47D
[26] = tested on: MDA-MB-435
[27] = tested on: NCI-H460
[28] = tested on: SK-MEL-2
[29] = tested on: HCT-15
[30] = tested on: UACC-257
[31] = tested on: HT-29
[32] = tested on: CAKI-1
[33] = tested on: NCI-H522
[34] = tested on: NCI-H226
[35] = tested on: HCC 2998
[36] = tested on: A549
[37] = tested on: HOP-92
[38] = tested on: MDA-MB-231
[39] = tested on: MOLT-4
[40] = tested on: RPMI-8226
[41] = tested on: Hs-578T
[42] = tested on: SK-MEL-28
[43] = tested on: OVCAR-4
[44] = tested on: HL-60
[45] = tested on: 786-0
[46] = tested on: SNB-75
[47] = tested on: TK-10
[48] = tested on: NCI/ADR-RES
[49] = tested on: UACC-62
[50] = tested on: DU-145
[51] = tested on: HCT-116
[52] = tested on: COLO 205
[53] = tested on: K562
[54] = tested on: SK-OV-3
[55] = tested on: OVCAR-8
[56] = tested on: SF-295
[57] = tested on: ACHN
[58] = tested on: CCRF-CEM
[59] = tested on: HOP-62

Measured: GI50

CSc1c(C#N)c(O)n(-c2ccc(Cl)cc2)c(=O)c1C#N
inactive: [1] > 100 µM | [2] 45.2 µM | [3] 36 µM | [4] > 100 µM | [5] > 100 µM | [6] 14 µM | [7] 64.6 µM | [8] > 100 µM | [9] > 100 µM | [10] > 100 µM | [11] > 100 µM | [12] > 100 µM | [13] 61 µM | [14] > 100 µM | [15] > 100 µM | [16] > 100 µM | [17] > 100 µM | [18] > 100 µM | [19] 91.2 µM | [20] 72.9 µM | [21] > 100 µM | [22] > 100 µM | [23] > 100 µM | [24] > 100 µM | [25] 64.9 µM | [26] > 100 µM | [27] > 100 µM | [28] > 100 µM | [30] > 100 µM | [31] > 100 µM | [32] 49.4 µM | [33] 40.5 µM | [34] 48.1 µM | [35] > 100 µM | [36] 80.4 µM | [37] 30.8 µM | [38] > 100 µM | [39] 76.4 µM | [40] 39.5 µM | [41] > 100 µM | [42] > 100 µM | [43] > 100 µM | [44] 28.1 µM | [45] > 100 µM | [46] > 100 µM | [47] > 100 µM | [48] 77.3 µM | [49] 44.6 µM | [50] > 100 µM | [51] 63.5 µM | [52] > 100 µM | [53] 35.6 µM | [54] > 100 µM | [55] > 100 µM
97.9 µM: [29]

COc1ccc(-c2cn3c(n2)sc2cc(C)ccc23)cc1
38.5 µM: [29]
inactive: [56] 16.8 µM | [1] 4.73 µM | [2] 21.3 µM | [3] 5.05 µM | [4] 13.6 µM | [5] 22.8 µM | [6] 17.5 µM | [7] 4.85 µM | [8] 3.65 µM | [9] 14.8 µM | [10] 4.13 µM | [11] 26.1 µM | [12] 37.8 µM | [13] 25.8 µM | [14] 7.19 µM | [15] 5.08 µM | [16] 7.14 µM | [17] 16.6 µM | [18] 4.86 µM | [57] 28.4 µM | [19] 9.29 µM | [20] 42.3 µM | [21] 12.1 µM | [22] 12.5 µM | [23] 23.7 µM | [24] 43.2 µM | [25] 3.33 µM | [26] 5.28 µM | [27] 20.7 µM | [28] 14.3 µM | [30] 3.9 µM | [31] 5.96 µM | [32] 57.5 µM | [58] 19.8 µM | [33] 5.55 µM | [34] 15.2 µM | [35] 12.5 µM | [36] 24.4 µM | [37] 2.86 µM | [59] 20.2 µM | [38] 15.5 µM | [39] 17.5 µM | [40] 3.93 µM | [41] 18.2 µM | [42] 38.3 µM | [43] 10.9 µM | [44] 3.45 µM | [45] 18.3 µM | [46] 17.4 µM | [47] 22.1 µM | [48] > 100 µM | [49] 12.3 µM | [50] 23.2 µM | [51] 13.2 µM | [52] 5.51 µM | [53] 3.64 µM | [54] 22.1 µM | [55] 8.17 µM

O=c1c2ccccc2nc(-c2ccccc2)n1O
41.1 µM: [29]
inactive: [56] 35.3 µM | [1] > 100 µM | [2] > 100 µM | [3] 67 µM | [4] > 100 µM | [5] > 100 µM | [6] 76.6 µM | [7] 95.9 µM | [8] 70.8 µM | [9] > 100 µM | [10] > 100 µM | [11] 95.7 µM | [12] > 100 µM | [13] > 100 µM | [14] 56.8 µM | [15] > 100 µM | [16] 51.6 µM | [17] 31.3 µM | [18] 23.3 µM | [57] > 100 µM | [19] 71 µM | [20] 8.53 µM | [21] > 100 µM | [22] > 100 µM | [23] > 100 µM | [24] > 100 µM | [25] 45.6 µM | [26] > 100 µM | [27] 64.1 µM | [28] > 100 µM | [30] > 100 µM | [31] > 100 µM | [32] 8.47 µM | [58] 19.6 µM | [33] > 100 µM | [34] 73.5 µM | [35] > 100 µM | [36] 71.8 µM | [37] 22.9 µM | [59] 5.28 µM | [38] > 100 µM | [40] 28.6 µM | [41] > 100 µM | [42] > 100 µM | [43] 55.5 µM | [44] 54 µM | [45] > 100 µM | [46] 87.3 µM | [47] > 100 µM | [48] 32.4 µM | [49] > 100 µM | [50] > 100 µM | [51] 55.8 µM | [52] > 100 µM | [53] 30.9 µM | [54] > 100 µM | [55] 51.5 µM

CCCC1(NC(=O)C(F)(F)F)CC(OC)OC2COC(c3ccccc3)OC21 (configuration not stated)
55.7 µM: [29]
inactive: [56] 50.7 µM | [1] 36.3 µM | [2] > 100 µM | [4] > 100 µM | [5] > 100 µM | [6] 64.9 µM | [7] 30 µM | [8] 16.9 µM | [9] 32 µM | [10] 46.7 µM | [11] 26.8 µM | [12] 44.7 µM | [13] 53 µM | [14] > 100 µM | [15] 59.4 µM | [16] > 100 µM | [17] 94.6 µM | [18] 24.8 µM | [57] 49.3 µM | [19] 34.5 µM | [20] 35 µM | [21] 58.6 µM | [22] > 100 µM | [23] > 100 µM | [24] > 100 µM | [25] 59.4 µM | [26] 18.1 µM | [27] 34 µM | [28] 26.8 µM | [30] 63.1 µM | [32] 6.31 µM | [58] 66.4 µM | [33] 31.5 µM | [34] > 100 µM | [35] 52.2 µM | [36] 28.3 µM | [37] 9.23 µM | [59] > 100 µM | [38] 95.1 µM | [39] 26.2 µM | [40] > 10 µM | [41] > 100 µM | [42] > 100 µM | [43] 6.25 µM | [44] 27.1 µM | [45] 76.2 µM | [46] > 100 µM | [48] 29.3 µM | [49] 55.7 µM | [50] 79.3 µM | [51] 42.1 µM | [52] 21.1 µM | [53] 35.3 µM | [54] 70 µM | [55] 51.1 µM

COc1cc2cc(C(=O)N3CC(CCl)c4ccc(N(C)C)cc43)[nH]c2c(OC)c1OC (configuration not stated)
active: [56] 0.0589 µM | [1] 0.173 µM | [2] 0.0153 µM | [3] 0.127 µM | [4] 0.0559 µM | [5] 0.0678 µM | [6] 0.0755 µM | [7] 0.0207 µM | [8] 0.131 µM | [9] 0.0676 µM | [10] 0.0897 µM | [11] 0.0923 µM | [12] 0.109 µM | [13] 0.12 µM | [14] 0.0601 µM | [15] 0.185 µM | [16] 0.0959 µM | [17] 0.0267 µM | [18] 0.0151 µM | [57] 0.0199 µM | [19] 0.0303 µM | [20] 0.0381 µM | [21] 0.131 µM | [22] 0.304 µM | [23] 0.198 µM | [24] 0.0853 µM | [25] 0.078 µM | [26] 0.168 µM | [27] 0.0269 µM | [28] 0.063 µM | [30] 0.139 µM | [31] 0.0817 µM | [32] 0.0395 µM | [58] 0.0547 µM | [33] 0.0127 µM | [34] 0.152 µM | [35] 0.0303 µM | [36] 0.0194 µM | [37] 0.0861 µM | [59] 0.128 µM | [38] 0.234 µM | [39] 0.048 µM | [40] 0.043 µM | [41] 0.294 µM | [42] 0.0556 µM | [43] 0.124 µM | [44] 0.0277 µM | [45] 0.0361 µM | [46] 0.29 µM | [47] 0.13 µM | [48] 0.0449 µM | [49] 0.0592 µM | [50] 0.0333 µM | [51] 0.0542 µM | [52] 0.0851 µM | [53] 0.0675 µM | [54] 0.261 µM | [55] 0.0989 µM
0.145 µM: [29]
